Measurements taken from the supplement of paper PMC11451515.

System: NOMO1
Experiment: cell viability relative to DMSO control; higher = less cytotoxic
Conditions: 48 h
How it was run: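 Viability is a per-plate percentage relative to DMSO wells, with cell-free wells as background. CellTiter-Glo One luminescence was read after 48 h at 37°C on 1536-well plates (5 μl) of NOMO1 or SEM (500 cells/well) or P12-Ichikawa (1000 cells/well) leukemia cells. The cells had been adapted for at least four passages in each medium and pin-dosed with library compounds in DMSO from 47 μM to 0.79 nM in 11 threefold steps.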

[1] = HPLM + 10% dialyzed FBS, 0.000781 µM
[2] = HPLM + 10% dialyzed FBS, 0.00234 µM
[3] = HPLM + 10% dialyzed FBS, 0.00702 µM
[4] = HPLM + 10% dialyzed FBS, 0.0211 µM
[5] = HPLM + 10% dialyzed FBS, 0.0632 µM
[6] = HPLM + 10% dialyzed FBS, 0.19 µM
[7] = HPLM + 10% dialyzed FBS, 0.569 µM
[8] = HPLM + 10% dialyzed FBS, 1.71 µM
[9] = HPLM + 10% dialyzed FBS, 5.12 µM
[10] = HPLM + 10% dialyzed FBS, 15.4 µM
[11] = HPLM + 10% dialyzed FBS, 46.1 µM
[12] = RPMI 5 mM glucose + 10% FBS, 0.000781 µM
[13] = RPMI 5 mM glucose + 10% FBS, 0.00234 µM
[14] = RPMI 5 mM glucose + 10% FBS, 0.00702 µM
[15] = RPMI 5 mM glucose + 10% FBS, 0.0211 µM
[16] = RPMI 5 mM glucose + 10% FBS, 0.0632 µM
[17] = RPMI 5 mM glucose + 10% FBS, 0.19 µM
[18] = RPMI 5 mM glucose + 10% FBS, 0.569 µM
[19] = RPMI 5 mM glucose + 10% FBS, 1.71 µM
[20] = RPMI 5 mM glucose + 10% FBS, 5.12 µM
[21] = RPMI 5 mM glucose + 10% FBS, 15.4 µM
[22] = RPMI 5 mM glucose + 10% FBS, 46.1 µM
[23] = RPMI 5 mM glucose + 10% dialyzed FBS, 0.000781 µM
[24] = RPMI 5 mM glucose + 10% dialyzed FBS, 0.00234 µM
[25] = RPMI 5 mM glucose + 10% dialyzed FBS, 0.00702 µM
[26] = RPMI 5 mM glucose + 10% dialyzed FBS, 0.0211 µM
[27] = RPMI 5 mM glucose + 10% dialyzed FBS, 0.0632 µM
[28] = RPMI 5 mM glucose + 10% dialyzed FBS, 0.19 µM
[29] = RPMI 5 mM glucose + 10% dialyzed FBS, 0.569 µM
[30] = RPMI 5 mM glucose + 10% dialyzed FBS, 1.71 µM
[31] = RPMI 5 mM glucose + 10% dialyzed FBS, 5.12 µM
[32] = RPMI 5 mM glucose + 10% dialyzed FBS, 15.4 µM
[33] = RPMI 5 mM glucose + 10% dialyzed FBS, 46.1 µM

| SMILES | cell viability [1] [%] | cell viability [2] [%] | cell viability [3] [%] | cell viability [4] [%] | cell viability [5] [%] | cell viability [6] [%] | cell viability [7] [%] | cell viability [8] [%] | cell viability [9] [%] | cell viability [10] [%] | cell viability [11] [%] | cell viability [12] [%] | cell viability [13] [%] | cell viability [14] [%] | cell viability [15] [%] | cell viability [16] [%] | cell viability [17] [%] | cell viability [18] [%] | cell viability [19] [%] | cell viability [20] [%] | cell viability [21] [%] | cell viability [22] [%] | cell viability [23] [%] | cell viability [24] [%] | cell viability [25] [%] | cell viability [26] [%] | cell viability [27] [%] | cell viability [28] [%] | cell viability [29] [%] | cell viability [30] [%] | cell viability [31] [%] | cell viability [32] [%] | cell viability [33] [%] |
| --- | --- | --- | --- | --- | --- | --- | --- | --- | --- | --- | --- | --- | --- | --- | --- | --- | --- | --- | --- | --- | --- | --- | --- | --- | --- | --- | --- | --- | --- | --- | --- | --- | --- |
| Cc1ccccc1N1C(=O)c2cc([S+](N)(=O)[O-])c(Cl)cc2NC1C (stereo not given) | 123 | 109 | 121 | 117 | 106 | 120 | 110 | 113 | 37.9 | 82.7 | 123 | 131 | 113 | 124 | 116 | 114 | 118 | 120 | 122 | 28.1 | 94.5 | 107 | 114 | 128 | 124 | 130 | 128 | 119 | 116 | 119 | 35.6 | 77.8 | 109 |
| COc1cccc2cc(-c3nc(C4CCC(C(=O)O)CC4)n4ncnc(N)c34)[nH]c12 (stereo not given) | 116 | 124 | 102 | 119 | 99.8 | 94.7 | 68.2 | 38.7 | 34.8 | 37.3 | 47.1 | 109 | 113 | 107 | 106 | 105 | 105 | 98.4 | 55.3 | 30 | 26.3 | 19.9 | 105 | 104 | 108 | 115 | 102 | 105 | 88.1 | 53.6 | 41.7 | 26.9 | 27.8 |
| CC1=C(/C=C/C(C)=C/C=C/C(C)=C/C=C/C=C(C)/C=C/C=C(C)/C=C/C2=C(C)CCCC2(C)C)C(C)(C)CCC1 | 115 | 110 | 108 | 104 | 104 | 107 | 100 | 98.2 | 118 | 92.9 | 98.2 | 119 | 112 | 110 | 111 | 108 | 108 | 99.3 | 101 | 113 | 102 | 95.5 | 101 | 113 | 129 | 108 | 112 | 111 | 107 | 117 | 114 | 95.1 | 90.3 |
| CC(=O)Oc1ccccc1C(=O)O | 106 | 107 | 104 | 105 | 115 | 107 | 107 | 99.2 | 88 | 98.9 | 103 | 93.8 | 95.9 | 92.9 | 88.4 | 97.9 | 87.4 | 95.2 | 106 | 88.3 | 101 | 90.4 | 97.7 | 104 | 106 | 109 | 110 | 93.4 | 91.8 | 105 | 88.4 | 94.9 | 96.6 |
| CC(NC1=CC=CC=C1)C\2=C\C(=C/N3C(=O)\C=C(/N=C23)N4CCOCC4)C (stereo not given) | 91.6 | 106 | 115 | 105 | 114 | 117 | 125 | 118 | 108 | 99.6 | 87.6 | 92.7 | 96.3 | 97.7 | 109 | 109 | 102 | 115 | 99.8 | 108 | 105 | 108 | 95.7 | 92.9 | 111 | 110 | 105 | 116 | 109 | 108 | 94.7 | 96.7 | 83 |
| COc1cc2nc(N(C)CCCNC(=O)C3CCCO3)nc(N)c2cc1OC (stereo not given) | 63.4 | 82.7 | 99.4 | 77.8 | 96.3 | 90.6 | 79.7 | 89.7 | 31.3 | 28 | 20 | 70.7 | 74 | 71.9 | 75.4 | 73.2 | 81.8 | 72.1 | 71.9 | 33.2 | 36 | 10 | 61.6 | 76.5 | 68.8 | 85 | 77.6 | 77.9 | 75.4 | 87.4 | 51.9 | 61.9 | 15.1 |
| CCC1(C)CC(=O)NC1=O (stereo not given) | 114 | 116 | 105 | 118 | 102 | 111 | 104 | 93.9 | 105 | 86.7 | 84.2 | 85.5 | 89.2 | 84.7 | 87.5 | 89.2 | 92.2 | 99.2 | 81.7 | 90.3 | 94.5 | 77.4 | 104 | 98.1 | 96.7 | 94.3 | 81.3 | 101 | 98.4 | 92.7 | 96.6 | 88.2 | 87.6 |
| COC[C@H]1OC(=O)C2=COC3=C2[C@@]1(C)\C4=C(C5CCC(=O)[C@@]5(C)C[C@H]4OC(C)=O)/C3=O (stereo not given in full) | 84.5 | 111 | 107 | 36.5 | 111 | 114 | 104 | 114 | 108 | 95 | 102 | 90.1 | 92 | 92.2 | 19.6 | 98.7 | 98.3 | 100 | 91.8 | 93.6 | 91.8 | 107 | 82 | 85.2 | 95.7 | 47.2 | 93.3 | 94.1 | 90.9 | 94.6 | 91.5 | 87.5 | 87.6 |
| O=C(OC)[C@]12CC[C@@]3(C)[C@]4(C)CC[C@H]5[C@@](C)(C)C(=O)C(=C[C@]5(C)C4=CC(=O)[C@@H]3[C@@H]2C[C@](C)(C)CC1)C#N | 95 | 100 | 90.6 | 112 | 110 | 94.1 | 113 | 96.1 | 110 | 2.47 | 2.86 | 93.9 | 99.8 | 89.5 | 82.1 | 99.2 | 94.2 | 88.9 | 84.7 | 88.6 | 2.76 | 2.71 | 87.2 | 92 | 96.5 | 96.6 | 102 | 112 | 85 | 84.6 | 85.7 | 2.44 | 2.7 |
| CN(C)c1ccc(O)c2c1C[C@H]1C[C@H]3[C@H](N(C)C)C(O)=C(C(N)=O)C(=O)[C@@]3(O)C(O)=C1C2=O | 103 | 105 | 105 | 118 | 117 | 125 | 99.8 | 111 | 101 | 100 | 113 | 103 | 98 | 109 | 98.1 | 114 | 122 | 107 | 109 | 101 | 98.5 | 107 | 96 | 93.6 | 101 | 88.7 | 95.3 | 96 | 92.8 | 102 | 97.3 | 98.9 | 113 |
| CNC1CCC(N(Cc2cccc(-c3ccncc3)c2)C(=O)c2sc3ccccc3c2Cl)CC1 (stereo not given) | 74.1 | 92.9 | 104 | 113 | 107 | 99 | 101 | 36.1 | 6.61 | 7.33 | 1.5 | 90.8 | 85.3 | 85.5 | 93 | 86 | 90.6 | 92.4 | 87.7 | 11.3 | 5.87 | 1.62 | 79.3 | 88.3 | 93.2 | 87 | 84.7 | 97.8 | 95.9 | 102 | 55 | 60.4 | 1.53 |
| CN(CC#C)C/C1=C/C2=CC=CC=C2OC3=CC=CC=C13 | 82.4 | 98.5 | 91.5 | 89.2 | 98.9 | 91.2 | 85.2 | 70.4 | 82.3 | 65.1 | 64 | 81.3 | 85.1 | 82.2 | 94.4 | 86.3 | 77.5 | 92.6 | 81.3 | 80 | 85.1 | 75.5 | 89.1 | 81.7 | 83.8 | 87 | 91.5 | 78.4 | 81.1 | 84.4 | 93.6 | 87.1 | 80.6 |
| FC(F)(F)c1ccc(/C=C/c2nc(COc3ccc(CCCCn4ccnn4)cc3)co2)cc1 | 127 | 125 | 122 | 127 | 120 | 104 | 107 | 79.4 | 27.7 | 25.2 | 22.6 | 125 | 122 | 128 | 137 | 134 | 127 | 126 | 92.1 | 20.5 | 15.3 | 13.1 | 122 | 143 | 122 | 124 | 124 | 116 | 130 | 128 | 27.8 | 24.1 | 19.9 |
| CC(C)C(C)/C=C/C(C)C1CCC2C3=CC=C4CC(O)CCC4(C)C3CCC21C (stereo not given) | 104 | 101 | 115 | 111 | 104 | 99.8 | 112 | 106 | 111 | 110 | 94.8 | 86.5 | 97.2 | 90.6 | 88.4 | 96.7 | 88.6 | 89.9 | 92 | 85.1 | 83 | 82.7 | 99.1 | 88.7 | 92.4 | 89.8 | 99.7 | 104 | 94.6 | 97.7 | 86.4 | 81.6 | 90.4 |
| Cc1cn2c(-c3cn[nH]c3)cnc2c(Nc2ccc(C(=O)N3CCNCC3)cc2F)n1 | 109 | 102 | 114 | 107 | 96.5 | 100 | 112 | 82.7 | 91.2 | 70 | 34 | 105 | 91.6 | 101 | 88 | 88.3 | 88 | 89.2 | 85.3 | 86.2 | 78.7 | 36.1 | 89.2 | 93 | 93.8 | 98.1 | 88.7 | 98.8 | 92.5 | 93.1 | 80.5 | 62.5 | 29.9 |
